Test results as given in EP0577932A2, “Development of a mechanism-based screen to identify androgen receptor agonists and antagonists” (AMERICAN CYANAMID COMPANY, priority 1992, dated 1994).

Target: T1, mouse androgen receptor (Mus musculus, UniProt P19091)
T1 sequence (P19091 1-899): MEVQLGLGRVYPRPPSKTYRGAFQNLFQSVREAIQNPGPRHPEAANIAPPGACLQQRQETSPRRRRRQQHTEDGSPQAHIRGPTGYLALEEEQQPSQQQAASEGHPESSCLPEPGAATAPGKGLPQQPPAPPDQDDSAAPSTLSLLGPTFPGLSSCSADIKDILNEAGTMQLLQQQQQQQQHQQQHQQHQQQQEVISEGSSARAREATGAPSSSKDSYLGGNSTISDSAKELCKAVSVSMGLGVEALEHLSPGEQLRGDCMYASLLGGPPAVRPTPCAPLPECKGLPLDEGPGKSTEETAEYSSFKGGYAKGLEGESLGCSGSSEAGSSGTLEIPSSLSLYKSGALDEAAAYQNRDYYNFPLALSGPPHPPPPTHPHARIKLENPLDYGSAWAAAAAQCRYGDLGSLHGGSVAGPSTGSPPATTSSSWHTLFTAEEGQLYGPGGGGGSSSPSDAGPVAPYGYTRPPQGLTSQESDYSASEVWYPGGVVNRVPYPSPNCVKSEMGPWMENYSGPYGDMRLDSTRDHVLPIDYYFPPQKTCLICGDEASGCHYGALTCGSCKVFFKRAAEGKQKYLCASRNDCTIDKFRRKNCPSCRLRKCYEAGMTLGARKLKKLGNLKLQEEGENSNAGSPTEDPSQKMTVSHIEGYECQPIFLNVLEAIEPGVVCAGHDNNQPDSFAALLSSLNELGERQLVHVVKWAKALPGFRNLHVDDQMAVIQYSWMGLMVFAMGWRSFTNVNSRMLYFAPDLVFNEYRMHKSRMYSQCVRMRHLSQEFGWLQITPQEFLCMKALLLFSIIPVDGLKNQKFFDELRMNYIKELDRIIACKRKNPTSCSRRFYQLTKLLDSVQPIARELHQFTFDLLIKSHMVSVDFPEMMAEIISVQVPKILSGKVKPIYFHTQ
Settings: compete for binding sites only at high concentrations
Procedure: Bound and free steroids are separated by dextran-coated charcoal (0.5% Norit A and 0.05% dextran). Specific binding is determined by subtracting non-specific from total binding.

CC(C)(O)C(=O)Nc1ccc([N+](=O)[O-])c(C(F)(F)F)c1 [hyroxyl-flutamide]
affinity for the androgen receptor (in words): lower affinity
